13 compounds from ChEMBL document CHEMBL1149501, “Selective COX-2 inhibitors. Part 1: synthesis and biological evaluation of phenylazobenzenesulfonamides” (Bioorg Med Chem Lett, 2006) can be followed below.

Assay [1] concerns the target Prostaglandin G/H synthase 1 (Homo sapiens, UniProt P23219). Kind of assay: Inhibition of COX1 assessed as TBX2 production in human whole blood. The format is functional, tissue-based.
Assay [2] has as its target T1, Prostaglandin G/H synthase 1 (Ovis aries, UniProt P05979).
T1 sequence (P05979 whole entry): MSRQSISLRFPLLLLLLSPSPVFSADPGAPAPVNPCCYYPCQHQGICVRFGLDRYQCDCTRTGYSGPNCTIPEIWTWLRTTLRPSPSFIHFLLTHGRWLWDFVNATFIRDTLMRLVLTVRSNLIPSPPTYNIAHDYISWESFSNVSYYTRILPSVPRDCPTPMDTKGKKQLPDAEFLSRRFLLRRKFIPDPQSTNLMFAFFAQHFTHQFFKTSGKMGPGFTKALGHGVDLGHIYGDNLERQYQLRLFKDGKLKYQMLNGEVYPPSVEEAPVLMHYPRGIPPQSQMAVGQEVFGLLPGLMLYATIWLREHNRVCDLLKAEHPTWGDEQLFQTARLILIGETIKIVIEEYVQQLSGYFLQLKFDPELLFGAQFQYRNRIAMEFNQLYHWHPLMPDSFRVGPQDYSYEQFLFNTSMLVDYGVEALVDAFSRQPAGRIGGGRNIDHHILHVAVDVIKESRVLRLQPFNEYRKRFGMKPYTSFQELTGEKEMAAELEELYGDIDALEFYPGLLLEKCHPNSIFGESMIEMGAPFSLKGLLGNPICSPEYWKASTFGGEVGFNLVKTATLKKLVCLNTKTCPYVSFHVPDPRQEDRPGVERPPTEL

Each structure is given as a SMILES string.

Sequence of Prostaglandin G/H synthase 1 (Homo sapiens, UniProt P23219) (P23219 whole entry): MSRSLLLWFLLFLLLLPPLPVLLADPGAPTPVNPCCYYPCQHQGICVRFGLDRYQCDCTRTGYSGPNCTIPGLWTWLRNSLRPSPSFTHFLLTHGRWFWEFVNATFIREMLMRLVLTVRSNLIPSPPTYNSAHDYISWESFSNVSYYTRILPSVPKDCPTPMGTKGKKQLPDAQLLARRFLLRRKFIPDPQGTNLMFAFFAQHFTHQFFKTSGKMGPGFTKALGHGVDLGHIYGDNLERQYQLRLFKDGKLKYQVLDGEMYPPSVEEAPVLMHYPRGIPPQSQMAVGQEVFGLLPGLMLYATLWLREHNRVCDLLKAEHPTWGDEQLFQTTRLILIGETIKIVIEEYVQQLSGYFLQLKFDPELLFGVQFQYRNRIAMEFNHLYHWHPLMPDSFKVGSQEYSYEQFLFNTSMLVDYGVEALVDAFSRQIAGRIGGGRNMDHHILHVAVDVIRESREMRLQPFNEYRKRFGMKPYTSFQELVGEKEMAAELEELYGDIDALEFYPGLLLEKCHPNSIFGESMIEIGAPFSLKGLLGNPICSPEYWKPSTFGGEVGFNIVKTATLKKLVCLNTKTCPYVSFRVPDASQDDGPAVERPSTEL

As for `CSc1cc(N)ccc1/N=N/c1ccc(S(N)(=O)=O)cc1`, the 50% inhibitory concentration (IC50) (in general, the concentration that gives 50% inhibition) in assay [1] was determined as 23.3 µM; in assay [2] it was 34.1 µM.
With `NS(=O)(=O)c1ccc(/N=N/c2ccc(O)c(C(=O)O)c2)cc1` [SALAZOSULFAMIDE], the values for the IC50 in assay [1] and in assay [2] were 31.6 µM and 29.3 µM, respectively.
As for `COc1ccc(/N=N/c2ccc(S(N)(=O)=O)cc2)cc1O`, in assay [1], the IC50 is 66.4 µM.
In the case of `COc1ccc(/N=N/c2ccc(S(N)(=O)=O)cc2)cc1`, the IC50 in assay [1] was more than 100 µM.
In the case of `CC(C)c1ccc(NC(=O)Oc2ccc(/N=N/c3ccc(S(N)(=O)=O)cc3)cc2OC(=O)Nc2ccc(C(C)C)cc2)cc1`, in assay [1], the half-maximal inhibitory concentration (IC50) is 26.3 µM.
As to `NS(=O)(=O)c1ccc(/N=N/c2ccc(OC(=O)Nc3ccccc3)c(OC(=O)Nc3ccccc3)c2)cc1`, the 50% inhibitory concentration (IC50) in assay [1] came out at 35.1 µM.
The same measure, in the same setting: in the case of `NS(=O)(=O)c1ccc(/N=N/c2ccc(O)cc2)cc1` it was more than 100 µM.
In the case of `Oc1ccc(/C=C/c2cc(O)cc(O)c2)cc1` [RESVERATROL], in assay [2], the IC50 came out at 0.38 µM.
For `COc1cc(/N=N/c2ccc(S(N)(=O)=O)cc2)ccc1O`, in assay [1], the IC50 is more than 100 µM.
With `NS(=O)(=O)c1ccc(/N=N/c2ccc(O)c(O)c2)cc1`, in assay [1], the IC50 stood at 60 µM.
As to `COc1ccc(/N=N/c2ccc(S(N)(=O)=O)cc2)cc1OC`, the results for the 50% inhibitory concentration (IC50) in assay [1] and in assay [2] were 61.7 µM and more than 100 µM, respectively.
Consider `NS(=O)(=O)c1ccc(/N=N/c2ccc(O)c(Cl)c2)cc1`, for which the half-inhibitory concentration (IC50) in assay [1] amounted to 33.3 µM.
For `CN(C)c1ccc(/N=N/c2ccc(S(N)(=O)=O)cc2)cc1`, the IC50 in assay [1] was more than 100 µM.
